Usually IC50 stands for the concentration that gives 50% inhibition.

T2 sequence (P28482 8-360): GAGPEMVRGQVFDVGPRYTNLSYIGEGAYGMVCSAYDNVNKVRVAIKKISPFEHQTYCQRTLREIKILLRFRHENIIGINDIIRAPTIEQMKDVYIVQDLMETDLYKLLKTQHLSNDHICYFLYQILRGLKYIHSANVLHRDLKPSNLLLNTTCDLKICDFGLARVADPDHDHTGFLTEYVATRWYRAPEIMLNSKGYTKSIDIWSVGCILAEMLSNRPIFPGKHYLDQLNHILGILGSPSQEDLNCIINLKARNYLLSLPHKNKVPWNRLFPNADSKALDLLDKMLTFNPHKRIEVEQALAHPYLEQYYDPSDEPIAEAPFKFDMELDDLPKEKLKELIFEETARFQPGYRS
T1 sequence (P28482 8-360): as above

In the first assay the test system is PMA-stimulated P90RSK(Ser380) phosphorylation in HepG2 cells. Description: Cellular P90RSK(Ser380) Phosphorylation Assay (Example 4). The class given is cell-based. The note with it: Homo sapiens, 1.5 hour compound incubation, PMA 100 ng/mL, normalized to GAPDH, read-out: RSK Inhibition IC50. Here is the method:
Cellular P90RSK(Ser380) Phosphorylation Assay
Inhibition of PMA-stimulated P90RSK(Ser380) phosphorylation was determined by the following in vitro cellular mechanistic assay, which comprises incubating cells with a compound for 1.5 hours and quantifying fluorescent pP90RSK(Ser380) signal on fixed cells and normalizing to GAPDH signal.
Materials and Methods: HepG2 cells were obtained from ATCC and grown in DMEM supplemented with 10% fetal bovine serum. Cells were plated in 96-well plates at 35,000 cells/well and allowed to attach overnight at 37° C./5% CO2. Diluted compounds were then added at a final concentration of 0.5% DMSO. After 1.5 hour compound incubation, cells were stimulated with the addition of PMA (phorbol 12-myristate 13-acetate) at a final concentration of 100 ng/mL; the PMA stimulation was a 30-minute incubation at 37° C./5% CO2. After the 30-minute PMA stimulation, cells were washed with PBS and fixed in 3.7% formaldehyde in PBS at room temperature for 15-20 minutes. This was followed by another wash in PBS and then permeabilization in 100% MeOH at room temperature for 10-15 minutes. Following the permeabilization incubation, cells were washed in PBS/0.05% Tween-20, followed by a block in Odyssey blocking buffer (LI-COR Biosciences) for at least 1 hour. Antibodies to phosphorylated P90RSK(Ser380) (Cell Signaling #9335, rabbit monoclonal) and GAPDH (Fitzgerald 10R-G109a, mouse monoclonal) were added to the cells and incubated overnight at 4° C. pP90RSK(Ser380) antibody was used at a 1:250 dilution; GAPDH was used at a 1:10,000 dilution. After washing with PBS/0.05% Tween-20, the cells were incubated with fluorescently-labeled secondary antibodies (Anti-rabbit-Alexa Flour680, Invitrogen Cat#A21109; Anti-mouse-IRDye800CW, Rockland Inc. Cat#610-131-121) for 1 hour. Both secondary antibodies were used at a 1:1000 dilution. Cells were then washed and analyzed for fluorescence at both wavelengths using the Odyssey Infrared Imaging System (LI-COR Biosciences). Phosphorylated P90RSK(Ser380) signal was normalized to GAPDH signal. Representative date is in TABLE 2 (infra).
On to `Cc1[nH]ncc1-c1cnc2[nH]cc(-c3cnn(Cc4cc(F)ccc4Cl)c3)c2n1` [I-24, 7-[1-(2-chloro-5-fluoro-benzyl)-1H-pyrazol-4-yl]-2-(5-methyl-1H-pyrazol-4-yl)-5H-pyrrolo[2,3-b]pyrazine], for which the IC50 came to 371 nM.

A further assay addresses T1, human ERK-2 (Mitogen Activated Kinase 1) (Homo sapiens, UniProt P28482).
T1 construct: n-terminal 6-His fusion protein in E. coli and corresponding to aa 8-360; 6-His (N); made in house; host or cells: E. coli
Nature of the assay: ERK-2 Enzymatic Assay (Example 2). It is filed as biochemical. The note with it: Omnia peptide S/T17, 25 μM ATP, read-out: ERK Inhibition IC50. Here is the method: Compounds were tested in an enzymatic assay using human ERK-2 (Mitogen Activated Kinase 1), recombinantly expressed as an n-terminal 6-His fusion protein in E. coli and corresponding to aa 8-360. The substrate used was the fluorescent Omnia peptide S/T17 (Invitrogen of Carlsbad, Calif.; Cat. KNZ1171C). Test compounds were diluted in DMSO in 3-fold serial dilutions at 100× final concentrations. […] The assay was run at ambient temperature in a white 384-well polypropylene plate (Nunc, Inc of Naperville, Ill.; Cat. 267462) collecting data every 50 seconds for approximately 30 minutes on an Envision plate reader (PerkinElmer, Inc. of Waltham, Mass.); Excitation 340 nm/Emission 495 nm. The data collected from each well was fit to a straight line and the resulting rates were used to calculate percent of control. Percent of control was plotted against compound concentration and IC50 values were determined using a four-parameter fit. Representative date is in TABLE 2 (infra).
With `Cc1[nH]ncc1-c1cnc2[nH]cc(-c3cnn(Cc4cc(F)ccc4Cl)c3)c2n1` [I-24, 7-[1-(2-chloro-5-fluoro-benzyl)-1H-pyrazol-4-yl]-2-(5-methyl-1H-pyrazol-4-yl)-5H-pyrrolo[2,3-b]pyrazine], the half-inhibitory concentration (IC50) was 2.02 nM.

A further assay has as its target T2, human ERK-2 (Homo sapiens, UniProt P28482).
T2 construct: n-terminal 6-His fusion protein in E. coli and corresponding to aa 8-360; 6-His (N); made in house; host or cells: E. coli
Description: Labchip Kinase ERK Assay (Example 3). It is filed as biochemical. The conditions noted are these: LabChip Erk Assay (footnote 2), 25 μM ATP, Caliper LabChip 3000; read-out: ERK Inhibition IC50. As to the method:
Compounds were tested in an enzymatic assay using human ERK-2 recombinantly expressed as an n-terminal 6-His fusion protein in E. coli and corresponding to aa 8-360. The substrate used was 5FAM-IPTSPITTTYFFFKKK-COOH (Caliper cat #760352). Test compounds were diluted in DMSO in 3-fold serial dilutions at 100× final concentrations. […] The assay was run at ambient temperature in a white 384-well polypropylene plate (Nunc, Inc of Naperville, Ill.; Cat. 267462) for 60 minutes then stopped by addition of EDTA. Percent substrate phosphorylated was determined by microfluidic separation using a Caliper LabChip 3000 instrument. Percent inhibition was plotted against compound concentration and IC50 values were determined using a four-parameter fit.
Turning to `Cc1cc(-c2c[nH]c3ncc(-c4ccncc4)nc23)cnc1Cl` [II-6, 7-(6-chloro-5-methyl-pyridin-3-yl)-2-pyridin-4-yl-5H-pyrrolo[2,3-b]pyrazine], the IC50 worked out at 47.8 nM.

With `Cc1[nH]ncc1-c1cnc2[nH]cc(-c3cnn(Cc4cccc(OC(F)(F)F)c4)c3)c2n1` [I-22, 2-(5-methyl-1H-pyrazol-4-yl)-7-[1-(3-trifluoromethoxy-benzyl)-1H-pyrazol-4-yl]-5H-pyrrolo[2,3-b]pyrazine], the IC50 was determined as 14.9 nM.

In the case of `c1ccc(Cn2cc(-c3c[nH]c4ncc(-c5ccc6cn[nH]c6c5)nc34)cn2)cc1` [I-19, 7-(1-benzyl-1H-pyrazol-4-yl)-2-(1H-indazol-6-yl)-5H-pyrrolo[2,3-b]pyrazine], the IC50 amounted to 343 nM.

With `c1cncc(Cn2cc(-c3c[nH]c4ncc(-c5ccncc5)nc34)cn2)c1` [I-23, 2-pyridin-4-yl-7-(1-pyridin-3-ylmethyl-1H-pyrazol-4-yl)-5H-pyrrolo[2,3-b]pyrazine], the concentration for half-maximal inhibition (IC50) was 65.8 nM.

For the molecule `Cc1nn(C)c(C)c1-c1cnc2[nH]cc(-c3cnn(Cc4ccccc4)c3)c2n1` [I-13, 7-(1-benzyl-1H-pyrazol-4-yl)-2-(1,3,5-trimethyl-1H-pyrazol-4-yl)-5H-pyrrolo[2,3-b]pyrazine], the IC50 came out at 105 nM.

In the case of `Cc1cc(-c2c[nH]c3ncc(-c4ccncc4)nc23)cnc1F` [II-1, 7-(6-fluoro-5-methyl-pyridin-3-yl)-2-pyridin-4-yl-5H-pyrrolo[2,3-b]pyrazine], the IC50 came out at 53.1 nM.

On to `Cc1cc(-c2cnc3[nH]cc(-c4cnn(Cc5cccc(F)c5)c4)c3n2)ccn1` [I-12, 7-[1-(3-fluoro-benzyl)-1H-pyrazol-4-yl]-2-(2-methyl-pyridin-4-yl)-5H-pyrrolo[2,3-b]pyrazine], for which the IC50 is 22.1 nM.

With `Cc1noc(C)c1-c1cnc2[nH]cc(-c3cnn(Cc4ccccc4)c3)c2n1` [I-14, 7-(1-benzyl-1H-pyrazol-4-yl)-2-(3,5-dimethyl-isoxazol-4-yl)-5H-pyrrolo[2,3-b]pyrazine], the 50% inhibitory concentration (IC50) stood at 110 nM.
